Results on 13 compounds are retold here after patent US11739098B2 (BRISTOL-MYERS SQUIBB COMPANY, priority 2017, dated 2023).

What all share (assay type): cell-based
One experiment concerns the target T1, human TLR9 (Homo sapiens, UniProt Q9NR96).
T1 construct: host or cells: HEK-Blue cells (HEK293-derived reporter line)
T1 sequence (Q9NR96 26-1032): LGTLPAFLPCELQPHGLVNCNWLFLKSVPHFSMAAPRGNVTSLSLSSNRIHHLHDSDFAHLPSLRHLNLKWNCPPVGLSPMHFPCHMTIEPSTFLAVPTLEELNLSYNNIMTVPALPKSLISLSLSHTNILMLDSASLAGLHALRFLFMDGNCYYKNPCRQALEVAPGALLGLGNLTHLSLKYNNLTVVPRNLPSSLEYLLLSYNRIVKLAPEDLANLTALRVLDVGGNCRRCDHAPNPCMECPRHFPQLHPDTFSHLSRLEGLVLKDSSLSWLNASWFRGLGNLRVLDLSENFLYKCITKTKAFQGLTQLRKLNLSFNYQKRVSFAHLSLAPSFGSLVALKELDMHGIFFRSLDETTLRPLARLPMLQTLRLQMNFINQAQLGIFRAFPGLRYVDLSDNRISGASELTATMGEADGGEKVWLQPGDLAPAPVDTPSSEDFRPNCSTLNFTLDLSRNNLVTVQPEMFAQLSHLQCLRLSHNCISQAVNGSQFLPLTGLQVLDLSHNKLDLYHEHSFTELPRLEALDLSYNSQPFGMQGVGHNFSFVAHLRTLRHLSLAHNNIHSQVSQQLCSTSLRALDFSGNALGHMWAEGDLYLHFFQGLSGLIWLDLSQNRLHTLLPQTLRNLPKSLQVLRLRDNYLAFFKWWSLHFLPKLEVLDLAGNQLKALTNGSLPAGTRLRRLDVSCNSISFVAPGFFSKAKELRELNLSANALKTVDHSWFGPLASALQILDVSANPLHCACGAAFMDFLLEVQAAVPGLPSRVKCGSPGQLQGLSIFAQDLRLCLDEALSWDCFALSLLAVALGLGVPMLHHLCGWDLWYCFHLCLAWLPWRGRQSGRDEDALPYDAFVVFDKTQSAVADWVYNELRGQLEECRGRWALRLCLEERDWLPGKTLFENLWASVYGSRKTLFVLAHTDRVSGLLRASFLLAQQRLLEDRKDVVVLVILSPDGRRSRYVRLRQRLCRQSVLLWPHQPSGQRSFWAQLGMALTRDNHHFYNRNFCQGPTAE
The experiment in a line: TLR9 inhibition reporter assay (HEK-Blue cells, SEAP reporter, ODN2006 stimulation). The note with it: HEK-Blue cells overexpressing human TLR9, SEAP reporter, ODN2006 5 nM. The method, boiled down:
(§1)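 HEK-Blue cells overexpressing the receptor, with NF-κB/AP-1-driven SEAP, were pre-treated 30 min at room temperature with compound (0.05 nM–50 μM), then stimulated with gardiquimod 7.5 μM (TLR7), R848 15.9 μM (TLR8) or ODN2006 5 nM (TLR9). SEAP was read after 22 h at 37 °C as percent inhibition.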
In general terms: Reporter assays use an easily measured gene product as a stand-in for the process of interest.

The target in another experiment is T2, human TLR7 (Homo sapiens, UniProt Q9NYK1).
T2 construct: host or cells: HEK-Blue cells (HEK293-derived reporter line)
T2 sequence (Q9NYK1 27-1049): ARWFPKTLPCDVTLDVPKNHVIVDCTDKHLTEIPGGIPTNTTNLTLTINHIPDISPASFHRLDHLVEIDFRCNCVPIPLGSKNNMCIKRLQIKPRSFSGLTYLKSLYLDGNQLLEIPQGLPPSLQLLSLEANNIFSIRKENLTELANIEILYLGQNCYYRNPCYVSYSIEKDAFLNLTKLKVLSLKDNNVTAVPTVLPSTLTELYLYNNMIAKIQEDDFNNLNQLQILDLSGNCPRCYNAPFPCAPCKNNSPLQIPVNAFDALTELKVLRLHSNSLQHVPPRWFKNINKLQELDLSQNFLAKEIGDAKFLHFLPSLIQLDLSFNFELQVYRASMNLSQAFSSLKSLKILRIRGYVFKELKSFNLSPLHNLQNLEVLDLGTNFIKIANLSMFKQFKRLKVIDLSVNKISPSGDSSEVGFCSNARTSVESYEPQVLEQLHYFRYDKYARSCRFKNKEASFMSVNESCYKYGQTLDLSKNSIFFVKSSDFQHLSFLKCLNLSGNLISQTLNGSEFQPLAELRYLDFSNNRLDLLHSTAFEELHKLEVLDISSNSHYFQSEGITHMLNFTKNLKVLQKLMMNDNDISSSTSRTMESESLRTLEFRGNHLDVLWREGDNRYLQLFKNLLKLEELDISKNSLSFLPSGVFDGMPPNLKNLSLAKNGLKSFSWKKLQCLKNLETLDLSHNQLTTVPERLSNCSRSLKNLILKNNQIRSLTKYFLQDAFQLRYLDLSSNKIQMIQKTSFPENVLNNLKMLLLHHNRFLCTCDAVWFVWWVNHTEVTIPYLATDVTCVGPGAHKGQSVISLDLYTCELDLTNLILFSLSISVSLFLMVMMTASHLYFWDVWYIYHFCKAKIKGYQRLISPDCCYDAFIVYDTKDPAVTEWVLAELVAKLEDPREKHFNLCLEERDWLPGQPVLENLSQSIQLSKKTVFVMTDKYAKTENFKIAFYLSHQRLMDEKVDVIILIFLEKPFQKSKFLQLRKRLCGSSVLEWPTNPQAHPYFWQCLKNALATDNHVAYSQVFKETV
The experiment in a line: TLR7 inhibition reporter assay (HEK-Blue cells, SEAP reporter, gardiquimod stimulation). The note with it: HEK-Blue cells overexpressing human TLR7, SEAP reporter, gardiquimod 7.5 μM. The method, boiled down:
as §1

In the next experiment the target is T3, human TLR8 (Homo sapiens, UniProt Q9NR97).
T3 construct: host or cells: HEK-Blue cells (HEK293-derived reporter line)
T3 sequence (Q9NR97 27-1041): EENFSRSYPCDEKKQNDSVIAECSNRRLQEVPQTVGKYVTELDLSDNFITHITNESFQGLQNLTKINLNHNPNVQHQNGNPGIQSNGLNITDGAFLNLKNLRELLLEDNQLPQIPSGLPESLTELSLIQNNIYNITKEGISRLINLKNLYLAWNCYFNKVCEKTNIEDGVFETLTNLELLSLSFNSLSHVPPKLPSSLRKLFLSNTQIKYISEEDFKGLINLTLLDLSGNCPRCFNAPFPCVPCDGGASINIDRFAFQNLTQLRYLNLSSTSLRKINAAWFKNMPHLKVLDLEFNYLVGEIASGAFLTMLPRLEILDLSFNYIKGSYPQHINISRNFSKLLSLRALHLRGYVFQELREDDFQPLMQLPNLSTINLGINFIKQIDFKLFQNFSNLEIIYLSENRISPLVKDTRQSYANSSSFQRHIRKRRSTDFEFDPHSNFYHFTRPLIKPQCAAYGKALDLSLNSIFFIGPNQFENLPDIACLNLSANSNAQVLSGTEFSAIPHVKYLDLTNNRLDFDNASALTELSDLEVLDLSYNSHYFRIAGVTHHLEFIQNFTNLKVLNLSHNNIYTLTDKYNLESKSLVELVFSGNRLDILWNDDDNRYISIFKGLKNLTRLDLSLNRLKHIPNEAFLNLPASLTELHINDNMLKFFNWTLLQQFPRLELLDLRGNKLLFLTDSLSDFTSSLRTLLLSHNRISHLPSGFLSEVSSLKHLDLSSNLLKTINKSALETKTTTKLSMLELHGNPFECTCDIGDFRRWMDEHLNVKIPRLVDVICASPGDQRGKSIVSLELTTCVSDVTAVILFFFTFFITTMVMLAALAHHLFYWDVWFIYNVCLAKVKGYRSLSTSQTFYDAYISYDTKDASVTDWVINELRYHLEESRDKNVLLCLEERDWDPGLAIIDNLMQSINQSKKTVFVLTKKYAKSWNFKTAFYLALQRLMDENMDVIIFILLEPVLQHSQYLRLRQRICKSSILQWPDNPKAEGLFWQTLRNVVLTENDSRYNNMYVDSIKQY
The experiment in a line: TLR8 inhibition reporter assay (HEK-Blue cells, SEAP reporter, R848 stimulation). The note with it: HEK-Blue cells overexpressing human TLR8, SEAP reporter, R848 15.9 μM. The method, boiled down: as §1

With `Cc1cc2nnnn2cc1-c1[nH]c2ccc(C3CCN(C4CCOCC4)CC3)cc2c1C(C)C` [Example 699, 6-(3-isopropyl-5-(1-(tetrahydro-2H-pyran-4-yl)piperidin-4-yl)-1H-indol-2-yl)-7-methyltetrazolo[1,5-a]pyridine], the IC50 is 1000 to 50000 nM against human TLR9, under 100 nM against human TLR7 and under 100 nM on human TLR8.

As for `Cc1c(-c2[nH]c3ccc(C4CCNCC4)cc3c2C(C)C)ccc2c1cnn2C` [Example 94, 5-(3-isopropyl-5-(piperidin-4-yl)-1H-indol-2-yl)-1,4-dimethyl-1H-indazole], the 50% inhibitory concentration (IC50) against human TLR9 was 1000 to 50000 nM; against human TLR7, under 100 nM; against human TLR8 it was under 100 nM.

For `CC(C)c1c(-c2ccc3nccn3c2)[nH]c2ccc(C3CCN(C(=O)[C@@H]4CCCNC4)CC3)cc12` [Example 639, (R)-(4-(2-(imidazo[1,2-a]pyridin-6-yl)-3-isopropyl-1H-indol-5-yl)piperidin-1-yl)(piperidin-3-yl)methanone], the IC50 at human TLR9 is 100 to 1000 nM; against human TLR7 it was under 100 nM; against human TLR8 it was 100 to 1000 nM.

For the compound `CC(C)c1c(-c2ccn3ccnc3c2)[nH]c2ccc(C3CCNCC3)cc12` [Example 203, 7-(3-isopropyl-5-(piperidin-4-yl)-1H-indol-2-yl)imidazo[1,2-a]pyridine], the values for the IC50 against human TLR9, on human TLR7 and against human TLR8 were 100 to 1000 nM, under 100 nM and under 100 nM, respectively.

As for `Cc1cc(-c2[nH]c3ccc(C4CCN(CC(=O)N(C)C)CC4)cc3c2C(C)C)cn2c(C#N)cnc12` [Example 430, 2-(4-(2-(3-cyano-8-methylimidazo [1,2-a]pyridin-6-yl)-3-isopropyl-1H-indol-5-yl)piperidin-1-yl)-N,N-dimethylacetamide], the figures for the IC50 on human TLR9, against human TLR7 and against human TLR8 were 1000 to 50000 nM, 100 to 1000 nM and under 100 nM, respectively.

As for `CC(C)c1c(-c2ccnc3c2ncn3C)[nH]c2ccc(C3CCNCC3)cc12` [Example 45, 7-(3-isopropyl-5-(piperidin-4-yl)-1H-indol-2-yl)-3-methyl-3H-imidazo[4,5-b]pyridine], the IC50 fell in the range of 1000 to 50000 nM at human TLR9, 100 to 1000 nM against human TLR7 and 100 to 1000 nM against human TLR8.

In the case of `Cc1c(C2CCNCC2)ccc2[nH]c(-c3ccnc4[nH]ncc34)c(C)c12` [Example 256, 4-(3,4-dimethyl-5-(piperidin-4-yl)-1H-indol-2-yl)-1H-pyrazolo[3,4-b]pyridine], the 50% inhibitory concentration (IC50) is 1000 to 50000 nM at human TLR9, under 100 nM on human TLR7 and under 100 nM on human TLR8.

In the case of `CC(C)c1c(-c2ccnc3[nH]ncc23)[nH]c2ccc(C3CCN(Cc4csc(N)n4)CC3)cc12` [Example 925, 4-((4-(3-isopropyl-2-(1H-pyrazolo[3,4-b]pyridin-4-yl)-1H-indol-5-yl)piperidin-1-yl)methyl)thiazol-2-amine], the values for the IC50 against human TLR9, against human TLR7 and at human TLR8 were 1000 to 50000 nM, under 100 nM and under 100 nM, respectively.

As for `CC(C)c1c(-c2ccc(C#N)c3ncccc23)[nH]c2ccc(C3CCN(CC(N)=O)CC3)cc12` [Example 369, 2-(4-(2-(8-cyanoquinolin-5-yl)-3-isopropyl-1H-indol-5-yl)piperidin-1-yl)acetamide], the IC50 is 1000 to 50000 nM against human TLR9, under 100 nM against human TLR7 and under 100 nM against human TLR8.

As for `CNC(=O)CN1CCC(c2ccc3[nH]c(-c4ccn5cnnc5c4)c(C(C)C)c3c2)CC1` [Example 306, 2-(4-(2-([1,2,4]triazolo[4,3-a]pyridin-7-yl)-3-isopropyl-1H-indol-5-yl)piperidin-1-yl)-N-methylacetamide], the 50% inhibitory concentration (IC50) fell in the range of 1000 to 50000 nM against human TLR9, 100 to 1000 nM at human TLR7 and 100 to 1000 nM on human TLR8.

As to `CC(C)c1c(-c2ccnc3[nH]ncc23)[nH]c2ccc(C3CCN(C(=O)CN4CCNC(=O)C4)CC3)cc12` [Example 587, 4-(2-(4-(3-isopropyl-2-(1H-pyrazolo[3,4-b]pyridin-4-yl)-1H-indol-5-yl)piperidin-1-yl)-2-oxoethyl) piperazin-2-one], the IC50 against human TLR9 was over 50000 nM; against human TLR7, 100 to 1000 nM; against human TLR8 it was 100 to 1000 nM.

As for `Cc1cc(-c2[nH]c3ccc(C4CCNCC4)cc3c2C(C)C)cc2[nH]c(=O)oc12` [Example 91, 5-(3-isopropyl-5-(piperidin-4-yl)-1H-indol-2-yl)-7-methylbenzo[d]oxazol-2(3H)-one], the IC50 at human TLR9, at human TLR7 and against human TLR8 was 100 to 1000 nM in each case.

Consider `Cc1cc(-c2[nH]c3ccc(C4CCN(CC#N)CC4)cc3c2C(C)C)cn2nnnc12` [Example 961, 2-(4-(3-isopropyl-2-(8-methyltetrazolo[1,5-a]pyridin-6-yl)-1H-indol-5-yl)piperidin-1-yl)acetonitrile], for which the IC50 is 100 to 1000 nM on human TLR9, under 100 nM against human TLR7 and under 100 nM against human TLR8.

Usually IC50 stands for the midpoint of a concentration-inhibition curve. The low end stands for greater potency in that assay, the high end for weaker potency in that assay.
